Read-outs that look alike come from different tables or passages of the source.
Columns and labels:
Assay type in all cases: cell-based
phospho-ERK2 = experiment: Immunoblotting of phospho-ERK2 in beta-amyloid stimulated BV-2 cell culture; conditions: beta-amyloid together with KHG25967 (50 nM) compared to beta-amyloid only
Description: The beta-amyloid treated cells (6-well of 5×10^5 cells/3 Ml, allotted from Pharmacology Division of Ajou University) were collected, and washed with phosphate-buffered saline (PBS). After centrifugation, the cells were dissolved in 0.1 ml of RIPA buffer (containing 150 mM NaCl, 1% NP-40, 0.5% sodium deoxycholate, 0.1% SDS, 50 mM Tris-HCl, pH 7.4, 50 mM glyycerophosphate, 20 mM NaF, 20 mM EGTA, 1 mM DTT, 1 mM Na3VO4, and protease inhibitor) at 4° C. for 15 minutes by strong shaking. The cells were cultivated in ice for 10 minutes, the lysate was centrifuged at 14,000 rpm for 5 minutes. 20 μg of a protein obtained from the cell lysate was heated, and then, electrophoresed on 12% polyacrylamide gel under reduction condition. The cells were incubated in blocking buffer (20 mM Tris, pH 7.4-buffer saline containing 0.1% tween 20 containing 5% lipid-free dried milk) for 1 hour, to suppress non-specific binding. […]
To examine the effect of compound KHG25967 on phosphorylation of ERK (extracellular signal-regulated kinase) and expression of caspase 3 by beta-amyloid, a possible protein expression of ERK1/2 (extracellular signal-regulated kinase 1 & 2) and caspase 3 in BV-2cell culture stimulated with beta-amyloid were measured. […]

BV-2 cells = experiment: Cell viability (MTT analysis) of beta-amyloid treated BV-2 cells; conditions: for viability at 0.05 µM: Mus musculus
Description: Beta-amyloid (Aβ25-35, Sigma Chemical Co., St. Louis, Mo., USA) was diluted with aseptic desalted water and preservative solution (1 mM, GIBCO), and kept in aliquots at −70° C. To the treatment of beta-amyloid, beta-amyloid preservative solution was diluted to desired concentrations in a treatment medium (DMEM, GIBCO). The reagents were newly provided as a preservative solution (10 mM) under DMSO (dimethylsulfoxide), and diluted in treatment medium to desired concentrations.
BV-2 microglia cells (allotted from Pharmacology Division of Ajou University) were cultivated in DMEM (Dulbecco's Modified Eagle's Medium) supplemented with 5% fetal bovine serum (Invitrogen, Carlsbad, Calif., USA), sou/Ml penicillin (Invitrogen, Carlsbad, Calif., USA), and 50 μg/Ml streptomycin (Invitrogen, Carlsbad, Calif., USA) under the atmosphere condition with 5% CO2 and 95% air at 37° C. The medium was replaced once a day, the cells were plate-cultured in a density according to the scale of each experiment.
BV-2 cells were plate-cultured in 96-well plate at the density of 5×10^4, the cell viability was measured according to a conventional MTT analysis method and lactate dehydrogenase (LDH) analysis method. The MTT analysis depends on the metabolism ability of mitochondria of living cell, and reflexes intracellular redox states. The cultured cells were treated with MTT a solution (final concentration: 1 mg/Ml) for 4 hours. Deep blue formazan crystal generated in the original cells was dissolved in a lysis buffer, and then, the absorbance was detected at 595 nm with microplate reader. The LDH activity released from the culture medium was detected, which was evaluated as a cell death index. The culture medium was added to a reagent (test, Sigma Chemical Co, St. Louis, Mo., USA) containing sodium lactate, NADH and sodium pyruvate, and then, the absorbance reduction by NADH at 340 nm was measured. The result was calculated assuming that the LDH activity in homogenate solution of the non-treated control is 100%.
[…] For microscope analysis, BV-2 cells were used in 6-well plate at the density of 5×10^5 cells/well, for MTT analysis, BV-2 cells were used in 96-well plate at the density of 5×10^4 cells/well.
The obtained prevention effects of KHG25967 compound on toxicity induced by beta-amyloid in BV-2 cells were FIGS. 1A and 1b.
For MTT analysis, BV-2 cells were used on 96-well plate in the density of 5×10^4 cells/well. The quantitative analysis results (unit: %) for the cell viability obtained by MTT analysis were shown in Table 2, wherein the values are represented by the average of three experiments per each concentration.

interleukin-1beta = experiment: ELISA of interleukin-1beta in LPS-treated BV-2 cells; conditions: LPS 1 μg/ml for 2 hours, then 50 nM KHG25967 for 6 hours; compared to LPS only as 100%
Description: Lipopolysaccharide (LPS)-treated cells (6-well of 5×10^5 cells/3 Ml, Fluka, Sigma-Aldrich, St. Louis, Mo., USA) were collected, and washed with phosphate-buffered saline (PBS). The cells were centrifuged, and then dissolved in pro-prep lysis buffer at 4° C. Interleukin-1 beta and tumor necrosis factor-alpha in the cell lysis solution wherein the cells were dissolved were measured by enzyme-linked immunosorbent analysis plate (R&D systems inc, Minneapolis, Minn., USA). The absorbance at 450 nm was measured using microplate reader. In addition, cytokine was measured using a cytokine measuring system (R&D systems inc, Minneapolis, Minn., USA).
BV-2 cells were pre-treated with 1 μg/ml of LPS (Fluka, Sigma-Aldrich, St. Louis, Mo., USA) for 2 hours, and then, further treated with 50 nM KHG25967 for 6 hours. The changed amounts of cytokines of tumor necrosis factor-alpha and interleukin-1beta were measured from lysate solution where the cells were dissolved in cell lysate solution (Intron Biotechnology, Seoul, Korea).

## O=C(O)CNC(=O)Nc1nc2ccccc2s1 [KHG25967, 2-(3-benzo[d]thiazole-2-ylureido)acetic acid]
phospho-ERK2
  reduction of expression level of phospho-ERK2 (FIG. 2B): 70%
BV-2 cells; KHG25967 pre-treated prior to the addition of beta-amyloid, similar to treatment after beta-amyloid
  protection against nervous cell degeneration by beta-amyloid, compound pre-treated: shows a protective effect against nervous degeneration
BV-2 cells; BV-2, 50 nM KHG25967 for 24 hours after 50 μM beta-amyloid for 2 hours, beta-amyloid only control 35%, read-out: cell viability (FIG. 1B, MTT analysis)
  viability at 0.05 µM: 83%
BV-2 cells; compound 50 nM for 24 hours after 50 μM beta-amyloid for 2 hours, BV-2 cells, average of three experiments, read-out: cell viability by MTT analysis
  viability at 0.05 µM: 83%
interleukin-1beta
  suppression of interleukin-1beta level (FIG. 3A): 70%

Source: patent US9012481B2, “Benzoarylureido compounds, and composition for prevention or treatment of neurodegenerative brain disease containing the same” (Korea Institute of Science and Technology, priority 2009, dated 2015)
